pIC50: −log10 of the molar value.
Legend:
[1] = system: PDE I (Ca^2+ calmodulin-stimulable); assay: Inhibition of the phosphodiesterases in vitro: PDE I; assay type: biochemical, porcine aorta, porcine brain or preferably bovine aorta; details: CaCl2 1 μM and calmodulin 0.1 μM added; nucleotide 10^-6 mol/l; pH 7.5; 30 min
Protocol: (§1) The c-GMP-stimulable PDE II, the c-GMP-inhibitable PDE III and the cAMP-specific PDE IV were isolated either from porcine or bovine myocardium. The Ca^2+ calmodulin-stimulable PDE I was isolated from porcine aorta, porcine brain or preferably from bovine aorta The c-GMP-specific PDE V was obtained from porcine small intestine, porcine aorta, human blood platelets and preferably from bovine aorta. Purification was carried out by anion exchange chromatography on Mono® Pharmacia essentially according to the method of M. Hoey and Miles D. Houslay, Biochemical Pharmacology, Vol. 40, 193-202 (1990) and C. Lugman et al., Biochemical Pharmacology Vol. 35, 1743-1751 (1986).
(§2) The enzyme activity was determined in a test mixture of 100 μl in 20 mM tris/HCl buffer ph 7.5 which contains 5 MM MgCl2, 0.1 mg/ml of bovine serum albumin and either 800 Bq of ^3 HcAMP or ^3 HcGMP. The final concentration of the corresponding nucleotides is 10^-6 mol/l. The reaction is started by addition of the enzyme; the amount of enzyme is proportioned such that during the incubation time of 30 min about 50% of the substrate is reacted. In order to test the cGMP-stimulable PDE II, ^3 HcAMP is used as a substrate and 10^-6 mol/l of unlabelled cGMP is added to the mixture. In order to test the Ca calmodulin-dependent PDE I, additionally CaCl2, 1 μM and calmodulin, 0.1 μM are added to the reaction mixture. The reaction is stopped by addition of 100 μl of acetonitrile which contains 1 mM cAMP and 1 mM AMP. 100 μl of the reaction mixture are separated on an HPLC and the cleavage products are quantitatively determined "on-line" using a flow scintillation counter. The substance concentration is measured at which the reaction rate is decreased by 50%. Additionally, the "phosphodiesterase [3H] cAMP-SPA enzyme assay" and the "phosphodiesterase [^3 H] cGMP-SPA enzyme assay" from Amersham Life Science were used for testing. The test was carried out according to the experimental protocol indicated by the manufacturer. For activity determination of the PDE2, the [^3 H] cAMP SPA assay was used, 10^-6 M cGMP being added to the reaction mixture to activate the enzyme. For the measurement of PDE1, calmodulin, 10^-7 M and CaCl2, 1 μM were added to the reaction mixture. The PDE5 was measured using the [^3 H] cGMP SPA assay.

[2] = system: PDE II (c-GMP-stimulable); assay: Inhibition of the phosphodiesterases in vitro: PDE II; assay type: biochemical, porcine or bovine (myocardium); details: ^3H cAMP substrate, 10^-6 mol/l unlabelled cGMP added; pH 7.5; 30 min
Protocol: as §1, §2

[3] = system: PDE V (c-GMP-specific); assay: Inhibition of the phosphodiesterases in vitro: PDE V; assay type: biochemical; details: nucleotide 10^-6 mol/l, pH 7.5, 30 min; or [^3H] cGMP SPA assay
Protocol: as §1, §2

SMILES	pIC50 [1]	pIC50 [2]	pIC50 [3]
CC(CCCc1ccccc1)n1cnc2c(=O)[nH]c(Cc3ccccc3)nc21 (stereo not drawn) [Example 1]	6.30	6.70	6.52
CC(O)C(CCCc1ccccc1)n1cnc2c(=O)[nH]c(Cc3ccccc3)nc21 (stereo not drawn) [Example 33]	5.52	7.00	6.10
CC(O)C(CCCc1ccccc1)n1cnc2c(=O)[nH]c(Cc3ccc(Cl)c(Cl)c3)nc21 (stereo not drawn) [Example 34]	~6.30	7.70	6.30
CC(O)C(CCCc1ccccc1)n1cnc2c(=O)[nH]c(Cc3ccc(F)cc3)nc21 (stereo not drawn) [Example 69]	5.52	7.22	6.30
CC(CCCc1ccccc1)n1cnc2c(=O)[nH]c(Cc3ccc(-c4ccc(F)cc4)cc3)nc21 (stereo not drawn) [Example 80]	7.00	7.10	6.00
CC(CCCc1ccccc1)n1cnc2c(=O)[nH]c(Cc3ccc(-c4cccc(N)c4)cc3)nc21 (stereo not drawn) [Example 82]	7.00	7.70	6.30
CC(CCCc1ccccc1)n1cnc2c(=O)[nH]c(Cc3ccc(-c4ccsc4)cc3)nc21 (stereo not drawn) [Example 83]	6.52	7.70	6.30
CC(CCCc1ccccc1)n1cnc2c(=O)[nH]c(Cc3ccc(-c4cccnc4)cc3)nc21 (stereo not drawn) [Example 84]	7.00	7.70	6.00
COc1ccc(Cc2nc3c(ncn3C(CCCc3ccccc3)C(C)=O)c(=O)[nH]2)cc1OC (stereo not drawn) [Example 100]	6.00	8.40	6.00
CC(O)C(CCCc1ccccc1)n1cnc2c(=O)[nH]c(Cc3ccc(NC(=O)C4CCN(C(=O)OCc5ccccc5)CC4)cc3)nc21 (stereo not drawn) [Example 121]	6.30	8.52	6.00
CCOC(=O)N1CCC(C(=O)Nc2ccc(Cc3nc4c(ncn4C(CCCc4ccccc4)C(C)O)c(=O)[nH]3)cc2)CC1 (stereo not drawn) [Example 122]	6.30	8.40	6.00
COc1ccc(Cc2nc3c(ncn3C(CCCc3ccccc3)C(C)O)c(=O)[nH]2)cc1S(=O)(=O)N1CCC(C(=O)O)CC1 (stereo not drawn) [Example 138]	6.30	9.00	6.30

Source: US5861396A, “Purin-6-one derivatives” (Bayer Aktiengesellschaft, priority 1995, dated 1999)
